Experimental data: patent publication US6296859A, “Synergistic composition comprising a compound of lipoamino acid structure and a water lily extract” (Societe d'Exploitation de Produits pour les Industries …, priority 1998, dated 2001)

Tests used:
[1] = target: T1, human leukocytic elastase (HLE) (Homo sapiens, UniProt P08246); assay: anti-elastase test: spectrophotometric hydrolysis of N-methoxysuccinyl-alanine-proline-valine-para-nitroanilide at 410 nm; type: biochemical; conditions: test concentration 0.001% palmitoylproline alone; 25° C.
T1 sequence (P08246 30-267): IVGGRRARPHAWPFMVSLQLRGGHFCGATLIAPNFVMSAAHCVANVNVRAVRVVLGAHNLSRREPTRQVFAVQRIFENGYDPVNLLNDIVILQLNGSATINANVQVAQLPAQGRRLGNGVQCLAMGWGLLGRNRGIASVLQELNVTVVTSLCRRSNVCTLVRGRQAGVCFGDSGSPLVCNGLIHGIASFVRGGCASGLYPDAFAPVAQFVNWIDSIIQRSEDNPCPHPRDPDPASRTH
Method: The reaction is carried out in a spectrophotometer, thermostatically maintained at 25° C., fitted with a sample changer. All the kinetics are carried out at least three times, the average and the standard deviation then being calculated for the three values obtained. […] A correlation thus exists between the percentage of inhibition of the formation of the coloured product by the test compound and the percentage of inhibition of human leukocytic elastase. The percentage of inhibition thus calculated is also representative of the calmant activity of the test compound.

[2] = anti-free-radical test: xanthine oxidase/xanthine, rate of reduction of cytochrome C at 550 nm; type: biochemical; conditions: test concentration 0.0062% palmitoylproline alone; 25° C.
From the text: The determination of the anti-free-radical effect is based on the inhibition or the decrease in the rate of reduction of cytochrome C, by adding a test molecule to the reaction medium. The superoxide anion is generated by the action of xanthine oxidase on xanthine. In the absence of a molecule capable of capturing it, it results in the reduction of cytochrome C. The formation of reduced cytochrome C is monitored by a spectrophotometer, at 550 nm in the presence (Test) and in the absence (Control) of anti-free-radical molecules.
The reaction takes place in a spectrophotometer thermostatically adjusted to 25° C. and fitted with a sample changer. All of the kinetics are carried out at least three times; the average and the standard deviation are calculated for the three values obtained. A percentage of inhibition of the rate of formation of the coloured product (corresponding to the amount of free superoxide anion) will thus be calculated for each active agent tested. […] The percentage of inhibition of the formation of the coloured product by the active agent will thus correspond to its percentage of inhibition of the superoxide anion.

- % of anti-elastase inhibition [1]: 22%
- % of anti-free-radical inhibition [2]: 38%
Structure (SMILES): CCCCCCCCCCCCCCCC(=O)N1CCC[C@H]1C(=O)O [Palmitoylproline, N-palmitoylproline]
